Columns and labels:
[1] = test system: MCF-7 and CAPAN-1 cells; assay: MTT cell viability with modulators (QVD-Oph, FeCl2); format: cell-based, human; conditions: 48 h; for effect of FeCl2 co-incubation on cytotoxicity of the ligand: FeCl2 100 μmol/L co-incubation, 2 at 5 μmol/L, 1 and 5 at 10 μmol/L
Method: (§1) The cytotoxic activity of the compounds was determined by MTT reduction assay as described. Compounds were diluted in Milli-Q water to obtain 1 mmol/L stock solutions. Appropriate aliquots of these solutions were diluted in the corresponding cell culture medium to obtain the final working concentrations. Aliquots of 5000 1BR3G cells, 6000 MCF-7, 6000 PC-3 cells, 10 000 CAPAN-1 cells, 4000 MCF 10A cells, 4000 HMLE cells or 4000 CCD-18Co cells were seeded in 96-well plates, 24 h prior to the treatments. Hematological cell lines were seeded at 400 000 cells/mL. Cells were treated with the corresponding compound at concentrations ranging from 0 to 100 μmol/L for 48 h. Three replicates for each compound were used. The IC50 was established for each compound by standard non-linear regression and curve fitting using GraphPad Prism (Graph Pad software Inc., La Jolla, CA, USA).
Fig 4 Induction of caspase activity. (A) The indicated cell lines were treated for 48 h with compounds 1, 2 and 5 (10 μmol/L) and caspase 3/7 activity was measured as indicated in Materials and Methods. Bar charts show the fold increase in caspase activity relative to untreated (control) and represent the mean±SD from three independent experiments performed in triplicate. (B) MCF-7 and CAPAN-1 cells were treated for 48 h with the ligands (10 μM) in the absence (-) or presence (+) of the pan-caspase inhibitor QVD-Oph (20 μM) and cell viability was measured with the MTT assay. […] Data represents the mean ± SD of 3 independent experiments performed in triplicate. The differences between absence and presence of QVD-OPh treatment were statistically significant at * p<0.05, **p<0.01 and ***p<0.001.
Fig 9 Effects of iron on 1, 2 and 5 activity. (A) Effect of 2 h FeCl2 pre-incubation (FeCl2 p) (dotted line) or co-incubation (FeCl2 c) (dashed line) at 1, 10 or 100 μmol/L on the cytotoxicity of 2 (5 μmol/L) in MCF-7 and CAPAN-1 cells. FeCl2 alone was included as a control (solid line). Cell viability was determined after 48 h of treatment by the MTT assay. (B) Effect of FeCl2 pre-incubation or co-incubation (100 μmol/L) on the cytotoxicity of 2 (5 μmol/L), 1 and 5 (10 μmol/L). Cells treated with the ligands alone were included as a reference (control). (C) ROS induction in CAPAN-1 cells after 24 h treatment with 2 (10 μmol/L) alone, together with FeCl2 or after FeCl2 pre-incubation (at 100 μmol/L). Results are presented as a percentage of untreated cells and represent mean±SD of 3 independent experiments. *p < 0.05 versus control cells.

[2] = test system: supercoiled pUC18 plasmid DNA; assay: DNA cleavage by agarose gel electrophoresis; format: biochemical; conditions: 25 μM, 1 h, 37°C
Method: DNA cleavage was monitored by agarose gel electrophoresis. A stock solution of pUC18 DNA was freshly prepared in Milli-Q water at a concentration of […] (1512 μmol/L nucleotides; 756 μmol/L bp). Reactions were performed by mixing 0.5 μl of pUC18 with appropriate aliquots of the compounds and 1 μL of activating agent solution (35% wt/vol H2O2 in H2O). Cacodylate buffer (0.1 M, pH 6.0) was added to the mixture to give a final volume of 20 μl. The final concentration of pUC18 DNA was 37.8 μmol/L in nucleotides (18.9 μmol/L bp). Samples were incubated for 1 h at 37°C; reactions were quenched by adding 6 μL of a buffer solution consisting of bromophenol blue (0.25%), xylene cyanol (0.25%), and glycerol (30%). Subsequently, the samples were subjected to electrophoresis in 0.8% agarose gels in 0.5×TBE buffer (0.045 mol/L Tris, 0.045 mol/L boric acid, and 1 mmol/L EDTA) at 100 V for 1 h and 40 min. Gels were stained with ethidium bromide (10 mg/mL in TBE) for 15 min and visualized under UV transillumination. DNA bands were captured using the ProgRes CapturePro 2.7 system and the intensity of each band was quantified with the GelQuant version 2.7 software (DNR Bio-Imaging Systems, Jerusalem, Israel) using a correction factor of 1.31 to compensate for the reduced ethidium bromide uptake of supercoiled plasmid pUC18 DNA [47]. The proportion of different forms of plasmid DNA was established for each treatment. To test the involvement of ROS in strand scission and possible complex–DNA interaction sites, various ROS scavengers and groove binders were added to the reaction mixtures. The scavengers used were Tiron (10 mmol/L), sodium azide (0.4 mol/L), and dimethyl sulfoxide (DMSO, 3 μL). The groove binders used were methyl green (20 mmol/L) and Hoechst (40 μmol/L).

[3] = test system: CAPAN-1 cells; assay: ROS measurement with H2DCFDA; format: cell-based, human; conditions: for fold increase of ROS levels: 5 h; for H2DCFDA fluorescence (ROS): 5.8 at 0 μmol/L; for reduction of compound-induced ROS levels by NAC: CAPAN-1, NAC 5 mmol/L
Method: (§2) Cellular ROS content was determined using the 2′,7′-dichlorodihydrofluorescein diacetate probe (H2DCFDA). Cells were seeded in 24-well plates (50 000 cells/well) in phenol red-free DMEM 24 h prior to treatments. Cells were treated with different concentrations of compound 1, 2 and 5 (2.5, 5 or 10 μmol/L) or vehicle alone as a control, for 5 or 24 hours at 37°C. In some experiments, cells were co-treated with the compounds plus 5 mmol/L NAC. After treatments, cells were washed with PBS and incubated with 1 μmol/L H2DCF-DA in PBS for 30 minutes in the dark. After washing, cells were collected with trypsin and analyzed by flow cytometry using a FACS-Calibur flow cytometer (Becton-Dickinson®, Immunofluorometry Systems, Mountain View, CA, USA). The geometric mean fluorescence intensity of 10 000 cells was established using CellQuestTM software (Becton Dickinson). The fluorescence fold-increase versus untreated cells was determined for each treatment.

[4] = test system: CS-like HMLER-shEcad cells; assay: MTT cytotoxicity assay in cancer stem-like cells; format: cell-based, human; conditions: Homo sapiens, 48 h
Method: as §1
Fig 2 Cell viability assay. (A) Cytotoxic activity of compounds 1, 2, and 5 against cancer cells. The indicated cell lines were treated for 48 h with ligands (10 μmol/L) and cell viability was measured with the MTT assay. Data represents the percentage of viable cells relative to untreated cells (control). (B) Cytotoxicity of doxorubicin and compounds 1, 2 and 5 against CS-like cells. CS-like HMLER-shEcad cells and non-CS-like HMLER isogenic parental cells were treated for 48 h with graded concentrations of doxorubicin, 1, 2 and 5. Cell viability was measured with the MTT assay. For each treatment, the percentage of viable cells relative to untreated cells is indicated. Data represents the mean±SD of 3 independent experiments performed in triplicate.

[5] = test system: MCF-7 cells; assay: ROS measurement with H2DCFDA; format: cell-based, human; conditions: MCF-7, 10 μmol/L, 24 h
Method: as §2

| SMILES | effect of FeCl2 co-incubation on cytotoxicity of the ligand [1] | Proportion of plasmid DNA Form I (supercoiled) ([2]; + H2O2) [%] | Proportion of plasmid DNA Form II (open) ([2]; + H2O2) [%] | Proportion of plasmid DNA Form I (supercoiled) ([2]; absence of H2O2) [%] | Proportion of plasmid DNA Form II (open) ([2]; absence of H2O2) [%] | fold increase of ROS levels ([3]; CAPAN-1, 2.5 μmol/L) [fold] | H2DCFDA fluorescence (ROS) ([3]; CAPAN-1, 2.5 μmol/L, 24 h) | fold increase of ROS levels ([3]; CAPAN-1, 5 μmol/L) [fold] | H2DCFDA fluorescence (ROS) ([3]; CAPAN-1, 5 μmol/L, 24 h) | fold increase of ROS levels ([3]; CAPAN-1, 10 μmol/L) [fold] | H2DCFDA fluorescence (ROS) ([3]; CAPAN-1, 10 μmol/L, 24 h) | reduction of compound-induced ROS levels by NAC [3] [%] | IC50 [4] [µM] | intracellular ROS levels vs untreated cells ([3]; CAPAN-1, 10 μmol/L, 24 h) [fold] | increase in cell viability by pan-caspase inhibitor QVD-Oph ([1]; ligand 10 μM, QVD-Oph 20 μM) | ROS induction with FeCl2 co-incubation ([3]; CAPAN-1, compound 10 μmol/L 24 h, FeCl2 100 μmol/L co-incubation) | increase in ROS levels in FeCl2-pretreated vs non-pretreated cells ([3]; CAPAN-1, compound 10 μmol/L 24 h, FeCl2 100 μmol/L pre-incubation) [fold] | increase in ROS levels [5] [fold] |
| --- | --- | --- | --- | --- | --- | --- | --- | --- | --- | --- | --- | --- | --- | --- | --- | --- | --- | --- |
| c1ccc(CN2CCC[C@H]2[C@@H]2CCCN2Cc2ccccn2)nc1 [Compound 1] | inhibited the cytotoxicity of the ligand in CAPAN-1, but not in MCF-7 cells | 52.8 | 47.2 | 84.3 | 15.7 | 1.73 | 10.9 | 2.01 | 11.79 | 2.61 | 32.6 | 31.1 | 5.3 ± 0.7 |  |  |  |  |  |
| CN1CCN(Cc2ccccn2)CCN(Cc2ccccn2)CC1 [Compound 5] | Neither pretreatment nor co-incubation with FeCl2 affected | 53.3 | 46.7 | 92.3 | 7.7 |  |  |  |  |  |  |  | 8.6 ± 0.5 | 2.4 |  |  |  |  |
| CN(C)c1ccnc(CN2CCC[C@H]2[C@@H]2CCCN2Cc2cc(N(C)C)ccn2)c1 [Compound 2] | clearly inhibited | 56.8 | 43.2 | 91.3 | 8.7 | 1.39 |  | 1.66 |  | 2.53 |  | 26.8 | 6.8 ± 0.1 |  | lack of reversion | abolished ROS induction | 1.5 | 7 |

From paper PMC4569415, “Pro-Oxidant Activity of Amine-Pyridine-Based Iron Complexes Efficiently Kills Cancer and Cancer Stem-Like Cells” (PLoS ONE, 2015)
